According to paper PMC12706802, “Ortho-Hydroxyanilides: Slow-Acting, Selective Histone Deacetylase 1/2 Inhibitors Suitable for Photocaging Applications” (ACS Pharmacology & Translational Science, 2025):
Where two headings read alike, the source gives them in different places.

Experiments:
MV-3 cells = test: MTT cell viability (antiproliferative) assay; type: cell-based, human; conditions: Homo sapiens, read-out: MV-3 EC50 (MTT)
Method: (§1) To evaluate the cytotoxicity of the selected HDAC inhibitors, compounds were tested for their antiproliferative activity against MV-3 and MDA-MB-231 cells using the MTT assay. […] MTT (3-(4,5-dimethylthiazol-2-yl)-2,5-diphenyltetrazolium bromide; Catalog# A2231; BioChemica, Applichem GmbH, Darmstadt, Germany) was utilized to measure the antiproliferative effect. Depending on the incubation time, 3000 MV-3 cells (72 h), 2000 MV-3 cells (96 h) or 1000 MV-3 cells (120 h) per well were seeded in 96-well plates (Starlab GmbH, Hamburg, Germany) with each well containing 199 μL of volume. […] Next, predilutions of the test compounds were prepared in DMSO. […] Subsequently, cells were treated with 1.0 μL of the dilution series of the test compounds. […] After removing the supernatant, formazan was solubilized in 200.0 μL DMSO. The absorbance was measured at 570 nm with background subtraction at 690 nm using a Multiskan microplate photometer (Thermo Fisher Scientific, Waltham, MA, USA). The obtained data were normalized to PBS, considering 100% viability.

HDAC1 = HDAC1 (Homo sapiens, UniProt Q13547); test: Fluorescence-based biochemical HDAC enzyme inhibition assay (ZMAL substrate)
HDAC1, sequence (Q13547 whole entry): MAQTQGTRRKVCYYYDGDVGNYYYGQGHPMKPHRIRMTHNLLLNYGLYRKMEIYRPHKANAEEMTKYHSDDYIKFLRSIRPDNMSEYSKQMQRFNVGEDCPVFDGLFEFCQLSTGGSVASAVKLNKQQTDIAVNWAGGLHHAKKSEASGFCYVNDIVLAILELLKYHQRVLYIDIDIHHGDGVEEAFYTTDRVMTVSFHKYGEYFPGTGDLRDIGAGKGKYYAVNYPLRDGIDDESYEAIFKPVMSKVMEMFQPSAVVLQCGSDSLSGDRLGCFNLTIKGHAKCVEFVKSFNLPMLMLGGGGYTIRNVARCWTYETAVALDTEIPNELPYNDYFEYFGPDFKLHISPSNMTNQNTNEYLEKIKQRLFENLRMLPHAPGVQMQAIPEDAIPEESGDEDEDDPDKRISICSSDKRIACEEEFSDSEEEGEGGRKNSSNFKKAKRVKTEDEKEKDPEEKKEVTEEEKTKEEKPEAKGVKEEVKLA
Method: (§2) First, the inhibitory activity and isoform selectivity of compounds and controls (see Figure ) was evaluated in a fluorescence-based biochemical HDAC inhibition assay against recombinant HDAC1, HDAC2, HDAC3, and HDAC6. […] First, 3-fold serial dilutions of test compounds were prepared in DMSO. […] IC50 values were determined by generating normalized dose–response curves using the three-parameter logistic equation (GraphPad Prism 8.0, San Diego, USA).

HDAC2 = HDAC2 (Homo sapiens, UniProt Q92769); test: as above
HDAC2, sequence (Q92769 whole entry): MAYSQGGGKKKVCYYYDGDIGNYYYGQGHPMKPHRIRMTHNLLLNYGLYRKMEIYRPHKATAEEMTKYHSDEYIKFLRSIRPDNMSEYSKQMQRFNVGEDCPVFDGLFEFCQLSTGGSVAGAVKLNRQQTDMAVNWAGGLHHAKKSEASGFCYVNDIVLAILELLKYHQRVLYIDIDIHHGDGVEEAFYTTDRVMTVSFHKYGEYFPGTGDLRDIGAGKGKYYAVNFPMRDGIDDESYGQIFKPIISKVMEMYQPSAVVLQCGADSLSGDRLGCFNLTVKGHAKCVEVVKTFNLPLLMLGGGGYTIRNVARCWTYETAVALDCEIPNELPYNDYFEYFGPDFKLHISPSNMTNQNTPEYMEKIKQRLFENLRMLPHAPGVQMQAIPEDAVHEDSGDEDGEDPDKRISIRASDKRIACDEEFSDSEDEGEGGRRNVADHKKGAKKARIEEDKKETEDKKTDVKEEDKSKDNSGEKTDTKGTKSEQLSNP
Method: as §2

HDAC6 = test system: HDAC6; set-up: method as in earlier work; conditions: Figure 1; ref 'Data taken from refs' (numbers not given); cited from earlier work
MDA-MB-231 cells = test: MTT cell viability (antiproliferative) assay; type: cell-based; conditions: Homo sapiens, MDA-MB-231, light or radiation study
Method: as §1

[1] = test system: HDACs in MDA-MB-231 cells; test: HDAC whole cell inhibition assay; conditions: for EC50: Homo sapiens, MDA-MB-231, light or radiation study, read-out: whole-cell HDAC inhibition EC50, MDA-MB-231
Method: (§3) Furthermore, we determined the EC50 values in the nontumorigenic cell line HEK293 and in the hematological cancer cell line MM.1S.
(§4) For this purpose, 3-fold serial dilutions of test compounds (DMSO) were prepared and added at a volume of 0.5 μL to the cells. […] MAL was used in a final concentration of 0.3 mM in the respective cell culture medium with 0.5% IGEPAL CA-630 (Catalog# J61055, Alfa Aesar). […] The obtained data were normalized to vehicle treated cells, considering 100% enzyme activity. IC50 values were determined by generating dose–response curves using the four-parameter logistic equation (GraphPad Prism 8.0, San Diego, USA).

HDACs in MV-3 cells = test: HDAC whole cell inhibition assay; conditions: for EC50: Homo sapiens, MV-3, light or radiation study, read-out: whole-cell HDAC inhibition EC50, MV-3
Method: as §3, §4

human recombinant HDAC6 = biological target: T1, human recombinant HDAC6 (Homo sapiens, UniProt Q9UBN7); test: Fluorescence-based biochemical HDAC enzyme inhibition assay (ZMAL substrate)
T1 sequence (Q9UBN7 1-1215): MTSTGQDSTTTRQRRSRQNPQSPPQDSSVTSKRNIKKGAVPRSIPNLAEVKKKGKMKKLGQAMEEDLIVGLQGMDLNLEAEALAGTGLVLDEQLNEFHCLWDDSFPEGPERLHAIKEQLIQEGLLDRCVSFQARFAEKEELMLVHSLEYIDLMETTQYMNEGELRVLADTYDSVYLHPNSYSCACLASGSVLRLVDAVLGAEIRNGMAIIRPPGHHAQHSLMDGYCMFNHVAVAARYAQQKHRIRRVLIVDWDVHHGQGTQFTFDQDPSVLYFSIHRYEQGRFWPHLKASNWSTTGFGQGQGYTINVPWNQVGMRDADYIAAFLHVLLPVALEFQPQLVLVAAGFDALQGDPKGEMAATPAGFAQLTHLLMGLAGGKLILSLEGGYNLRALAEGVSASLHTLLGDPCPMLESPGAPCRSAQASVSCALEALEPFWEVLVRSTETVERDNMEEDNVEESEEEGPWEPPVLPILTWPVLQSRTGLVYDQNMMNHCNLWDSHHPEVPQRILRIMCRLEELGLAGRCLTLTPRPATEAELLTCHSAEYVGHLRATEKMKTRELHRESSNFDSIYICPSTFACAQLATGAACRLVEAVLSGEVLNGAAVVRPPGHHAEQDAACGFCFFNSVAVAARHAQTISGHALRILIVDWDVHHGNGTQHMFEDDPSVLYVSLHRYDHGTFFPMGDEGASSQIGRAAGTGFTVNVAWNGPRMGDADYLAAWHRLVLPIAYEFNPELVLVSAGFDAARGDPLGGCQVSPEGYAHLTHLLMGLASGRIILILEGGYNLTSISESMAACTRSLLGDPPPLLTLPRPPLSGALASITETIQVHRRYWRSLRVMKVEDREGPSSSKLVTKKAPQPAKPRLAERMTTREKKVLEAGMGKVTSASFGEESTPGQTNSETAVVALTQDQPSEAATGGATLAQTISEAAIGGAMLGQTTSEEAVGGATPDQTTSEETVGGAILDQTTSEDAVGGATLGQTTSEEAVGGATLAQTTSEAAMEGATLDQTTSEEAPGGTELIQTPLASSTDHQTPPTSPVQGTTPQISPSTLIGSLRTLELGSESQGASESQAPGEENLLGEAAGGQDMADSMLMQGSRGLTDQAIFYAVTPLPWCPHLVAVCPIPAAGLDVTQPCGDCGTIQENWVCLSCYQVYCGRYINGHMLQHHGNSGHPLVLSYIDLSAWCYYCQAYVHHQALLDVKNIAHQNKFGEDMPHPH
Method: as §2

human recombinant HDAC3 = human recombinant HDAC3 (Homo sapiens, UniProt O15379); test: as above
human recombinant HDAC3, sequence (O15379 whole entry): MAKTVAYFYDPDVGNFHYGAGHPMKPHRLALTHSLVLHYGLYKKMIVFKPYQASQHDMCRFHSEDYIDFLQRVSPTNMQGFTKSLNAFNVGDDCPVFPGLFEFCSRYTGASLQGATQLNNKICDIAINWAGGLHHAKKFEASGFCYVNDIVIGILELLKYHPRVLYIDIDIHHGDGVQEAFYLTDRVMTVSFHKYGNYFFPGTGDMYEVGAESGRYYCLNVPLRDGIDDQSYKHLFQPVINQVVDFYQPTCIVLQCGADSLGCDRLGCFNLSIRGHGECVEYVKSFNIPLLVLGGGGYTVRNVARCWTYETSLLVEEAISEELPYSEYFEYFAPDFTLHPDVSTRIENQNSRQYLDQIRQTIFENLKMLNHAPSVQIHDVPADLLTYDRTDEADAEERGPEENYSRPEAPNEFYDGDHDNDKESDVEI
human recombinant HDAC3, sequence (Q9Y618 395-489 partner limits assumed): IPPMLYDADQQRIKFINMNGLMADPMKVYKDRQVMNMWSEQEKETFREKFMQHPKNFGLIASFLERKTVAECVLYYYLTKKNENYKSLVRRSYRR
Method: as §2

[2] = HPLC photolysis experiments (release of ST13 from ST17); type: physicochemical; conditions: 10 min
Method: The deprotection of ST17 and its effective conversion (82%) to its parent HDAC inhibitor ST13 upon irradiation (10 min; λ = 365 nm) was confirmed by high-performance liquid chromatography (HPLC) experiments (see Figure S3, Supporting Information). Next, ST17 was tested for its inhibitory activity against HDAC1, HDAC2, HDAC3, and HDAC6 with and without irradiation at 365 nm (see Table ).
For the deprotection experiments, 10 μL of a 1 mM ST17 solution in DMSO were irradiated for 10 min. Subsequently, samples were diluted with acetonitrile to a final concentration of 100 μM and analyzed via HPLC/UV (λquant = 250 nm) using the area under the curve (area [mAU × min]) for quantification. The amount of ST13 released from the photocager ST17 was quantified using a calibration curve of ST13 (see Figure S2).

[3] = HDAC1 IC50, preincubation of enzyme and inhibitor 1 h at RT, no irradiation
[4] = HDAC2 IC50, preincubation of enzyme and inhibitor 1 h at RT, no irradiation

SMILES: O=C(CCCCCCC(=O)Nc1ccccc1)NO [vorinostat, reference compound]
- EC50 (MV-3 cells; MV-3, 72 h): 1.88 ± 0.73 µM

SMILES: CC(=O)Nc1ccc(C(=O)Nc2ccccc2O)cc1 [ST01, 4-Acetamido-N-(2-hydroxyphenyl)-benzamide]
- IC50 (HDAC1; [3]): > 10000 nM
- IC50 (HDAC2; [4]): > 10000 nM

SMILES: CCCNNC(=O)c1ccc(CN(CC(=O)NCc2ccccc2)C(=O)c2ccc(N(C)C)cc2)cc1 [compound 5]
- IC50 (HDAC6): 10 µM

SMILES: COc1cc(COc2ccc(-c3ccccc3)cc2NC(=O)c2ccc(NC(C)=O)cc2)c([N+](=O)[O-])cc1OC [ST17, 4-Acetamido-N-(4-((4,5-dimethoxy-2-nitrobenzyl)-oxy)-[1,1′-biphenyl]-3-yl)-benzamide]
- IC50 (HDAC1; [3]): 840 ± 308 nM
- IC50 (HDAC1; HDAC1 IC50, with UV irradiation (10 min, 365 nm) of ST17, preincubation 1 h at RT): 40 ± 8 nM
- EC50 (MDA-MB-231 cells; incubation time 120 h, no irradiation): 11.2 ± 1.7 µM
- EC50 (MDA-MB-231 cells; with UV irradiation (10 min, 365 nm) of ST17, 120 h): 6.78 ± 0.58 µM
- EC50 ([1]; 18 h): 3550 ± 2000 nM
- EC50 [1]: 783 ± 139 nM
- increase of activity by light-induced activation compared to untreated ST17, MDA-MB-231 ([1]; whole cell HDAC assay): 4.5 fold
- EC50 (HDACs in MV-3 cells; 18 h): 5.98 ± 1.24 µM
- EC50 (HDACs in MV-3 cells): 0.392 ± 0.07 µM
- increase of activity by light-induced activation compared to untreated ST17, MV-3 (HDACs in MV-3 cells; whole cell HDAC assay): 15 fold
- IC50 (HDAC2; [4]): 1710 ± 830 nM
- IC50 (HDAC2; HDAC2 IC50, with UV irradiation (10 min, 365 nm) of ST17, preincubation 1 h at RT): 72 ± 12 nM
- EC50 (MV-3 cells; MV-3, light or radiation study, incubation time 120 h, no irradiation): 16.2 ± 4.1 µM
- EC50 (MV-3 cells; MV-3, light or radiation study, with UV irradiation (10 min, 365 nm) of ST17, 120 h): 4.64 ± 0.93 µM
- IC50 (human recombinant HDAC6): > 10 µM
- IC50 (human recombinant HDAC6; read-out: HDAC6 IC50, with UV irradiation (10 min, 365 nm) of ST17, preincubation 15 min at RT): > 10 µM
- IC50 (human recombinant HDAC3; HDAC3 IC50, preincubation of enzyme and inhibitor 1 h at RT, no irradiation): > 10 µM
- IC50 (human recombinant HDAC3; HDAC3 IC50, with UV irradiation (10 min, 365 nm) of ST17, preincubation 1 h at RT): 8.58 ± 0.76 µM
- conversion to parent HDAC inhibitor ST13 upon irradiation (HPLC) ([2]; λ = 365 nm, in DMSO, room temperature): 82%
- concentration of released ST13 following irradiation (HPLC) ([2]; initial ST17 concentration 100 µM, 365 nm): 81.67 µM
